Measured values reported in PubChem BioAssay (NCI).
Where “and” joins values, the source holds several entries; their conditions need not be identical. Equal values may be shown once.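 These data come from cells grown in 96-well plates and exposed to compound for 48 hours at five concentrations. Abbreviation: GI50, concentration required for 50% inhibition of growth. TGI marks complete inhibition of growth.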

What was measured:
Assay in all cases: NCI-60 cell line screen, 48 h
HCT-116 colon = test system: HCT-116 colon
HOP-62 NSCLC = test system: HOP-62 NSCLC
HS 578T breast = test system: HS 578T breast
LOX IMVI melanoma = test system: LOX IMVI melanoma
SK-OV-3 ovarian = test system: SK-OV-3 ovarian
SN12C renal = test system: SN12C renal
U251 CNS = test system: U251 CNS
UACC-257 melanoma = test system: UACC-257 melanoma
UO-31 renal = test system: UO-31 renal
SK-MEL-5 melanoma = test system: SK-MEL-5 melanoma

## Cc1ccc(-c2nc(C#N)c(S(=O)(=O)n3nc(C)cc3N)o2)cc1
HCT-116 colon
  GI50: 3.16 µM
  TGI: 13.2 µM
HOP-62 NSCLC
  GI50: 17.7 µM
  TGI: 35.1 µM
HS 578T breast
  GI50: 21.3 µM
  TGI: 58.1 µM
LOX IMVI melanoma
  GI50: 1.86 µM
  TGI: 3.59 µM
SK-OV-3 ovarian
  GI50: 27.5 µM
  TGI: 71.1 µM
SN12C renal
  GI50: 3.65 µM
  TGI: 13.9 µM
U251 CNS
  GI50: 13.6 µM
  TGI: 26.5 µM
UACC-257 melanoma
  GI50: 16.5 µM
  TGI: 30.1 µM
UO-31 renal
  GI50: 1.74 µM
  TGI: 3.33 µM

## CCOC1=C2C(=O)OC(=O)C2C2CCCCC2=C1 (stereo not given)
HCT-116 colon
  TGI: > 100 µM
HOP-62 NSCLC
  TGI: > 100 µM
LOX IMVI melanoma
  TGI: > 100 µM
SK-MEL-5 melanoma
  TGI: > 100 µM
SK-OV-3 ovarian
  TGI: > 100 µM
SN12C renal
  TGI: > 100 µM
U251 CNS
  TGI: > 100 µM
UACC-257 melanoma
  TGI: > 100 µM
UO-31 renal
  TGI: > 100 µM

## C#CC1(O)C(COP(=O)(O)OC(COCCCCCCCCCCCCCCCCCC)COP(=O)(O)OCC2OC(n3cc(F)c(=O)[nH]c3=O)CC2O)OC(n2ccc(N)nc2=O)C1O (stereo not given)
HCT-116 colon
  GI50: < 0.024 µM and 0.142 µM
  TGI: > 100 µM
HOP-62 NSCLC
  TGI: > 86.5 µM and 33.9 µM
HS 578T breast
  GI50: 2.12 µM and 1.03 µM
  TGI: 44.8 µM and 17.2 µM
LOX IMVI melanoma
  TGI: 7.25 µM and 37.7 µM
SK-OV-3 ovarian
  TGI: 16.2 µM and > 100 µM
SN12C renal
  TGI: > 65.1 µM
U251 CNS
  GI50: < 0.0428 µM and 0.177 µM
  TGI: 17.2 µM and 20.6 µM
UACC-257 melanoma
  TGI: 97.5 µM and 55.8 µM
UO-31 renal
  GI50: < 0.0376 µM and 0.115 µM
  TGI: 1.15 µM and 4.26 µM

## Cc1oc2c(C)c3oc(=O)cc(C)c3cc2c1CN1C(=O)C2OCCOCCOCCOCCOCCO[C@H]2C1=O (stereo not given in full)
HCT-116 colon
  TGI: > 100 µM
HOP-62 NSCLC
  TGI: > 100 µM
LOX IMVI melanoma
  TGI: > 100 µM
SK-MEL-5 melanoma
  TGI: > 100 µM
SK-OV-3 ovarian
  TGI: > 100 µM
SN12C renal
  TGI: > 100 µM
U251 CNS
  TGI: > 100 µM
UACC-257 melanoma
  TGI: > 100 µM
UO-31 renal
  TGI: > 100 µM

## O=C(CC(=O)C1=CNc2ccccc2S1)C(=O)Nc1ccc(Cl)cc1
HCT-116 colon
  TGI: > 50 µM
HOP-62 NSCLC
  TGI: > 50 µM
LOX IMVI melanoma
  TGI: > 50 µM
SK-MEL-5 melanoma
  TGI: > 50 µM
SK-OV-3 ovarian
  TGI: > 50 µM
SN12C renal
  TGI: > 50 µM
U251 CNS
  TGI: > 50 µM
UACC-257 melanoma
  TGI: > 50 µM
UO-31 renal
  TGI: > 50 µM

## COC1OC(CBr)C(OC(=O)c2ccccc2)C(O)C1Br (stereo not given)
HCT-116 colon
  TGI: > 100 µM
HOP-62 NSCLC
  TGI: > 100 µM
LOX IMVI melanoma
  TGI: > 100 µM
SK-MEL-5 melanoma
  TGI: > 100 µM
SN12C renal
  TGI: > 100 µM
U251 CNS
  TGI: > 100 µM
UACC-257 melanoma
  TGI: > 10 µM

## OCC(O)C(Cl)CCl (stereo not given)
HCT-116 colon
  TGI: > 100 µM
HOP-62 NSCLC
  TGI: > 100 µM
HS 578T breast
  TGI: > 100 µM
SK-MEL-5 melanoma
  TGI: > 100 µM
SK-OV-3 ovarian
  TGI: > 100 µM
SN12C renal
  TGI: > 100 µM
U251 CNS
  TGI: > 100 µM
UACC-257 melanoma
  TGI: > 100 µM
UO-31 renal
  TGI: > 100 µM

## CN1CCN(CCOc2ccc(-c3cnc4c(-c5ccc(C(F)(F)F)cc5)cnn4c3)cc2)CC1
HCT-116 colon
  GI50: 1.38 µM
  TGI: 2.81 µM
HOP-62 NSCLC
  GI50: 1.63 µM
  TGI: 3.55 µM
HS 578T breast
  GI50: 1.62 µM
  TGI: 3.41 µM
LOX IMVI melanoma
  GI50: 1.62 µM
  TGI: 3.15 µM
SK-MEL-5 melanoma
  GI50: 1.63 µM
  TGI: 3.03 µM
SN12C renal
  GI50: 1.66 µM
  TGI: 3.1 µM
U251 CNS
  GI50: 1.3 µM
  TGI: 2.67 µM
UACC-257 melanoma
  GI50: 1.66 µM
  TGI: 3.34 µM
UO-31 renal
  GI50: 1.34 µM
  TGI: 2.65 µM

## O=C(O/C(=C(/N=Nc1ccccc1)c1ccccc1)c1ccccc1)c1ccccc1
HCT-116 colon
  TGI: > 100 µM
SK-MEL-5 melanoma
  TGI: > 100 µM
SK-OV-3 ovarian
  TGI: > 100 µM
SN12C renal
  TGI: > 100 µM
U251 CNS
  TGI: > 100 µM
UACC-257 melanoma
  TGI: > 100 µM
UO-31 renal
  TGI: > 100 µM

## O=c1cc(-c2ccccc2F)[nH]c2ccc(N3CCCC3)cc12
HOP-62 NSCLC
  GI50: < 0.001 µM
  TGI: > 100 µM
HS 578T breast
  GI50: < 0.001 µM
LOX IMVI melanoma
  GI50: < 0.001 µM
  TGI: > 100 µM
SK-MEL-5 melanoma
  GI50: < 0.001 µM
SK-OV-3 ovarian
  GI50: < 0.001 µM
SN12C renal
  GI50: < 0.001 µM
  TGI: > 100 µM
U251 CNS
  GI50: < 0.001 µM
UACC-257 melanoma
  TGI: > 100 µM

## O=C1C2C3C=C4c5ccccc5N(c5ccccc5)C4(C2C(=O)N1c1ccc(Cl)cc1)[C@H]1C(=O)N(c2ccc(Cl)cc2)C(=O)[C@@H]31 (stereo not given in full)
HCT-116 colon
  TGI: > 100 µM
HOP-62 NSCLC
  TGI: > 100 µM
LOX IMVI melanoma
  TGI: > 100 µM
SK-MEL-5 melanoma
  TGI: > 100 µM
SK-OV-3 ovarian
  TGI: > 100 µM
SN12C renal
  TGI: > 100 µM
U251 CNS
  TGI: > 100 µM
UACC-257 melanoma
  TGI: > 100 µM
UO-31 renal
  TGI: > 100 µM

## COCC(O)Cn1ccnc1[N+](=O)[O-] (stereo not given)
HCT-116 colon
  TGI: > 100 µM
HOP-62 NSCLC
  TGI: > 100 µM
LOX IMVI melanoma
  TGI: > 100 µM
SK-OV-3 ovarian
  TGI: > 100 µM
SN12C renal
  TGI: > 100 µM
U251 CNS
  TGI: > 100 µM
UACC-257 melanoma
  TGI: > 100 µM
UO-31 renal
  TGI: > 100 µM

## COc1ccc(/C=C/C(=O)c2ccc(O)c(CN3CCN(c4cc5c(cc4F)c(=O)c(C(=O)O)cn5C4CC4)CC3)c2)cc1
HCT-116 colon
  GI50: 0.368 µM
  TGI: > 100 µM
HOP-62 NSCLC
  GI50: 1.97 µM
  TGI: > 100 µM
HS 578T breast
  GI50: 0.714 µM
  TGI: > 100 µM
SK-MEL-5 melanoma
  GI50: 1.57 µM
  TGI: > 100 µM
SK-OV-3 ovarian
  GI50: 2.56 µM
  TGI: 43.2 µM
U251 CNS
  GI50: 0.387 µM
  TGI: > 100 µM
UACC-257 melanoma
  GI50: 2.17 µM
  TGI: 69.9 µM

## NC(=O)c1ccccc1Nc1ccc2nnc(-c3ccncc3)n2n1
HCT-116 colon
  GI50: 3.77 µM
  TGI: 14.3 µM
HOP-62 NSCLC
  GI50: 9.93 µM
  TGI: 22.4 µM
HS 578T breast
  GI50: 18.1 µM
  TGI: 58.3 µM
LOX IMVI melanoma
  GI50: 1.87 µM
  TGI: 3.75 µM
SK-MEL-5 melanoma
  GI50: 4.74 µM
  TGI: 16.9 µM
SK-OV-3 ovarian
  GI50: 15.4 µM
  TGI: 44.4 µM
SN12C renal
  GI50: 3.69 µM
  TGI: 18.1 µM
U251 CNS
  GI50: 7.4 µM
  TGI: 20.6 µM
UO-31 renal
  GI50: 4.49 µM
  TGI: 17.6 µM

## CCn1cc(C(=O)N/N=C/c2ccccc2)c(=O)c2cc(F)c(N3CCNC(C)C3)c(F)c21 (stereo not given)
SK-MEL-5 melanoma
  GI50: 1.76 µM
  TGI: 3.14 µM
SK-OV-3 ovarian
  GI50: 1.81 µM
  TGI: 3.25 µM
UO-31 renal
  GI50: 1.55 µM
  TGI: 2.89 µM

## Cc1ccc(SSc2ccc(C)cc2C(=O)O)c(C(=O)O)c1
HOP-62 NSCLC
  TGI: > 100 µM
LOX IMVI melanoma
  TGI: > 100 µM
SK-MEL-5 melanoma
  TGI: > 100 µM
SK-OV-3 ovarian
  TGI: > 100 µM
SN12C renal
  TGI: > 100 µM
U251 CNS
  TGI: > 100 µM
UACC-257 melanoma
  TGI: > 100 µM
UO-31 renal
  TGI: > 100 µM

## C1=CC=C2NCCCCCCCNC3=CC=CC=CC3=NCCCCCCCN=C2C=C1
HCT-116 colon
  TGI: > 100 µM
LOX IMVI melanoma
  TGI: > 100 µM
SN12C renal
  TGI: > 100 µM
UACC-257 melanoma
  TGI: > 100 µM
UO-31 renal
  TGI: > 100 µM

## O=C1C(N2CC2)=C(N2CC2)C(=O)C(N2CC2)=C1N1CC1
HOP-62 NSCLC
  GI50: 0.0822 µM
  TGI: 1.05 µM
HS 578T breast
  GI50: 1.28 µM
  TGI: 6.21 µM
LOX IMVI melanoma
  GI50: < 0.0209 µM
  TGI: 0.307 µM
SK-MEL-5 melanoma
  GI50: 0.144 µM
  TGI: 0.359 µM
SK-OV-3 ovarian
  GI50: 0.123 µM
  TGI: 0.891 µM
SN12C renal
  GI50: < 0.0228 µM
  TGI: 1.45 µM
U251 CNS
  GI50: 0.275 µM
  TGI: 3.18 µM
UACC-257 melanoma
  GI50: 0.109 µM
  TGI: 0.749 µM
UO-31 renal
  GI50: < 0.0304 µM
  TGI: 0.606 µM

## O=c1[nH]nc2ccccc2c1Cc1ccccc1
HCT-116 colon
  TGI: > 100 µM
HOP-62 NSCLC
  TGI: > 100 µM
LOX IMVI melanoma
  TGI: > 100 µM
SK-MEL-5 melanoma
  TGI: > 100 µM
SK-OV-3 ovarian
  TGI: > 100 µM
SN12C renal
  TGI: > 100 µM
U251 CNS
  TGI: > 100 µM
UACC-257 melanoma
  TGI: > 100 µM
UO-31 renal
  TGI: > 100 µM
